Assay results as given in patent publication US10703735B2, “4-phenyl-coumarin derivatives, processes for their preparation and uses thereof for the treatment of cancer” (Lead Discovery Center GmbH, priority 2018, dated 2020).
pIC50: −log10 of the molar value.

Target: mitochondrial RNA-polymerase (POLRMT) (Mus musculus, UniProt Q8BKF1)
Assay: Homogeneous TR-FRET assay for mitochondrial transcription activity
Format: biochemical
Settings: homogeneous TR-FRET assay according to Example 4; read-out: mitochondrial transcription activity (IC-50)
Text: The TR-FRET assay was basically conducted as described in WO 2016/193231A1, especially as described in example 1 (hereby incorporated by reference). With respect to the background of the mitochondrial transcription it is referred to Falkenberg et al. (2002) and Posse et al. (Posse et al. 2015). The method monitors the activity of mitochondrial RNA-polymerase via detection of the formation of its product, a 407 bp long RNA sequence. Detection of the product is facilitated by hybridization of two DNA-oligonucleotide probes to specific and adjacent sequences within the RNA product sequence. Upon annealing of the probes, two fluorophores that are coupled directly to an acceptor nucleotide probe (ATT0647, 5′) or introduced via a coupled streptavidin interacting with a biotinylated donor nucleotide probe on the other side (Europium cryptate, 3) are brought into sufficient proximity to serve as a fluorescence-donor-acceptor pair as generally described in Walters and Namchuk (2003). Thus, a FRET signal at 665 nm is generated upon excitation at 340 nm.
Briefly, the protocol described here was applied for screening and activity determination in a low-volume 384-well microtiter plate with non-binding surface. For high-throughput application in the 1536-well microtiter plate format, volumes of the reagent mixes were adjusted, maintaining the volumetric ratio. Proteins POLRMT (NM_172551.3), TFAM (NM_009360.4) and TFB2M (NM_008249.4) were diluted from their stocks to working concentrations of 150 nM, 1.8 μM and 330 nM respectively, in a dilution buffer containing 100 mM Tris-HCl pH 8.0, 200 mM NaCl, 10% (v/v) glycerole, 2 mM glutathione (GSH), 0.5 mM EDTA and 0.1 mg/mL BSA. Protein dilutions and template DNA, comprising a pUC18 plasmid encoding the mitochondrial light strand promoter, restriction linearized proximal to the promoter 3′-end (pUC-LSP), were mixed at the twofold final assay-concentration in a reaction buffer, containing 10 mM Tris-HCl pH 7.5, 10 mM MgCl2, 40 mM NaCl, 2 mM GSH, 0.01% (w/v) Tween-20 and 0.1 mg/mL BSA.
5 μL of this mix were dispensed, depending on the chosen microtiter plate format, using multi-channel pipettes or a Multidrop® dispenser (Thermo Fisher Scientific, Waltham Mass.) into the wells of a microtiter plate and incubated at room temperature (RT) for 10 min. Chemical compounds under scrutiny in the assay were applied using contact-free acoustic droplet-dispensing (Echo520® Labcyte Inc., Sunnyvale Calif.) from 10 mM compound stocks in 100% DMSO, to a final concentration of 10 μM or in serial dilution series of the required concentration range. Equal amounts of DMSO without any compound were added to positive control samples, followed by an incubation step at RT for 10 min.
The enzymatic reaction was started by the addition of 5 μL of a mix of dNTPs in reaction buffer to a final concentration of 500 μM each. No nucleotide mix was added to negative control samples. The content of the wells was mixed using a VarioTeleshaker™ (Thermo Fisher Scientific, Waltham Mass.) at 1500 rpm for 45 sec after which the microtiter plate was centrifuged at 500×g for 1 min. The samples were incubated for 2 h at RT with humidity control to avoid evaporation. The detection reagents were prepared in a buffer that was composed, such that the enzymatic reaction was terminated due to chelating of Mg-ions and increased ionic strength, containing 50 mM Tris-HCl pH 7.5, 700 mM NaCl, 20 mM EDTA, and 0.01% (w/v) Tween-20. Importantly Eu-cryptate-coupled streptavidin had to be preincubated with a 100-fold molar excess of a random sequence oligonucleotide for 10 min at RT in the dark to block unspecific binding of single stranded RNA to the protein. Subsequently, the blocked streptavidin(-Eu) was mixed with the DNA-probes on ice and kept away from light until use. […]

mitochondrial RNA-polymerase (POLRMT), sequence (Q8BKF1 42-1207): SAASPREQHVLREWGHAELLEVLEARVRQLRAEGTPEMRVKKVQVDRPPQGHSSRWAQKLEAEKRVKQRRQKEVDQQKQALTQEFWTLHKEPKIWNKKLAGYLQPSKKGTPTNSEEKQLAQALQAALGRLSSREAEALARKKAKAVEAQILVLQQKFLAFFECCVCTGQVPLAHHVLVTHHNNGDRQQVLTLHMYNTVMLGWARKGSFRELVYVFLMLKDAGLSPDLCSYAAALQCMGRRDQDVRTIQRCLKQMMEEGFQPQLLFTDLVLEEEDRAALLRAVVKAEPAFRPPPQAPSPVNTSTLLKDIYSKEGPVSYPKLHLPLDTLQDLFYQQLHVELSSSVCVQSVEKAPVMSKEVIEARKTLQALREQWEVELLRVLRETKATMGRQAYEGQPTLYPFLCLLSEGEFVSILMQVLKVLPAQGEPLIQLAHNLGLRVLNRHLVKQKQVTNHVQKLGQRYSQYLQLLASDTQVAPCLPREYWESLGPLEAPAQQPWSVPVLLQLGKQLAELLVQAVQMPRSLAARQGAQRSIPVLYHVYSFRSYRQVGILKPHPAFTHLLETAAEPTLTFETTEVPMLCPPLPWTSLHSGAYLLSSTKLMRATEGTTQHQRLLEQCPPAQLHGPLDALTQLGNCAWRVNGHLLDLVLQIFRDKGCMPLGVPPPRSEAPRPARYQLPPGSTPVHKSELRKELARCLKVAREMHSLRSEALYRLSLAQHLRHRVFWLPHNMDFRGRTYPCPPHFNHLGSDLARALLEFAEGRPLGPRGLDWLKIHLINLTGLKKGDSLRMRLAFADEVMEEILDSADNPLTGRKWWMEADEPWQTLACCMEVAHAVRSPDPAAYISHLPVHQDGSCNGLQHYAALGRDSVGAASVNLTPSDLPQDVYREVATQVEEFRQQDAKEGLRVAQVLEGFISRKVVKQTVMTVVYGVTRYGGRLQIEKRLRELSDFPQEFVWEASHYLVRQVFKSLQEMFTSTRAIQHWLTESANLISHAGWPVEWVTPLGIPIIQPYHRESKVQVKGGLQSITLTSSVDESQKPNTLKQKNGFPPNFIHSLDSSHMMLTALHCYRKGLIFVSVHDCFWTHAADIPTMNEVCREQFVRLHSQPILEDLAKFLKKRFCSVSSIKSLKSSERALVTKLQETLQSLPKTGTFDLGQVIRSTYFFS

SMILES	pIC50
COC(=O)C(C)Oc1cc2oc(=O)cc(-c3ccccc3)c2cc1Cl (stereo not drawn) [Compound 58, methyl 2-(6-chloro-2-oxo-4-phenyl-chromen-7-yl)oxypropanoate]	6.00 to 7.00
CCN(CC)C(=O)COc1ccc2c(-c3ccccc3)cc(=O)oc2c1 [Compound 48, N,N-diethyl-2-(2-oxo-4-phenyl-chromen-7-yl)oxy-acetamide]	5.00 to 6.00
COc1ccc(NC(=O)C(C)Oc2ccc3c(-c4ccccc4)cc(=O)oc3c2)cc1 (stereo not drawn) [Compound 72, N-(4-methoxyphenyl)-2-(2-oxo-4-phenyl-chromen-7-yl)oxy-propanamide]	5.00 to 6.00
CCOC(=O)C(C)Oc1cc(F)c2c(-c3ccccc3)cc(=O)oc2c1 (stereo not drawn) [Compound 87, ethyl 2-(5-fluoro-2-oxo-4-phenyl-chromen-7-yl)oxypropanoate]	5.00 to 6.00
CCCCOC(=O)COc1ccc2c(-c3ccccc3)cc(=O)oc2c1 [Compound 76, butyl 2-(2-oxo-4-phenyl-chromen-7-yl)oxyacetate]	5.00 to 6.00
O=C(COc1cc2oc(=O)cc(-c3ccccc3)c2cc1Cl)NC[C@H]1CC[C@H](C(=O)O)CC1 [Compound 98, 4-[[[2-(6-chloro-2-oxo-4-phenyl-chromen-7-yl)oxyacetyl]amino]methyl]cyclohexanecarboxylic acid]	5.00 to 6.00
O=C(O)COc1cc2oc(=O)cc(-c3ccccc3)c2cc1Cl [Compound 88, 2-(6-chloro-2-oxo-4-phenyl-chromen-7-yl)oxyacetic acid]	5.00 to 6.00
CC(C)(C)OC(=O)COc1cc2oc(=O)cc(-c3ccccc3)c2cc1Cl [Compound 82, tert-butyl 2-(6-chloro-2-oxo-4-phenyl-chromen-7-yl)oxyacetate]	5.00 to 6.00
CCOC(=O)COc1ccc2c(-c3ccccc3)cc(=O)oc2c1 [Compound 81, ethyl 2-(2-oxo-4-phenyl-chromen-7-yl)oxyacetate]	5.00 to 6.00
CNC(=O)C(C)Oc1ccc2c(-c3ccccc3)cc(=O)oc2c1 (stereo not drawn) [Compound 26, N-methyl-2-(2-oxo-4-phenyl-chromen-7-yl)oxy-propanamide]	6.00 to 7.00
CCOC(=O)C(C)Oc1ccc2c(-c3ccc(Cl)cc3)cc(=O)oc2c1 (stereo not drawn) [Compound 3, ethyl 2-[4-(4-chlorophenyl)-2-oxo-chromen-7-yl]oxypropanoate]	6.00 to 7.00
O=C(COc1cc2oc(=O)cc(-c3ccccc3)c2cc1Cl)N1CCCc2ccccc21 [Compound 78, 6-chloro-7-[2-(3,4-dihydro-2H-quinolin-1-yl)-2-oxo-ethoxy]-4-phenyl-chromen-2-one]	5.00 to 6.00
CCOC(=O)C(C)Oc1ccc2c(-c3ccc(C)cc3)cc(=O)oc2c1 (stereo not drawn) [Compound 9, ethyl 2-[2-oxo-4-(p-tolyl)chromen-7-yl]oxypropanoate]	6.00 to 7.00
O=C(COc1cc2oc(=O)cc(-c3ccccc3)c2cc1Cl)NCc1cccnc1 [Compound 59, 2-(6-chloro-2-oxo-4-phenyl-chromen-7-yl)oxy-N-(3-pyridylmethyl)acetamide]	5.00 to 6.00
CC(Oc1ccc2c(-c3ccccc3)cc(=O)oc2c1)C(=O)NC(C(=O)O)c1ccccc1 (stereo not drawn) [Compound 96, 2-[2-(2-oxo-4-phenyl-chromen-7-yl)oxypropanoylamino]-2-phenyl-acetic acid]	5.00 to 6.00
CC(Oc1ccc2c(-c3ccccc3)cc(=O)oc2c1)C(=O)Nc1ccc(CCO)cc1 (stereo not drawn) [Compound 16, N-[4-(2-hydroxyethyl)phenyl]-2-(2-oxo-4-phenyl-chromen-7-yl)oxy-propanamide]	6.00 to 7.00
CC(Oc1cc2oc(=O)cc(-c3ccccc3)c2cc1Cl)C(=O)NCc1ccco1 (stereo not drawn) [Compound 42, 2-(6-chloro-2-oxo-4-phenyl-chromen-7-yl)oxy-N-(2-furylmethyl)propanamide]	6.00 to 7.00

SMILES	pIC50
CC(C)COC(=O)COc1ccc2c(-c3ccccc3)cc(=O)oc2c1 [Compound 77, isobutyl 2-(2-oxo-4-phenyl-chromen-7-yl)oxyacetate]	5.00 to 6.00
O=C(O)C1CCCN(C(=O)COc2cc3oc(=O)cc(-c4ccccc4)c3cc2Cl)C1 (stereo not drawn) [Compound 85, 1-[2-(6-chloro-2-oxo-4-phenyl-chromen-7-yl)oxyacetyl]piperidine-3-carboxylic acid]	5.00 to 6.00
COC(=O)C1CCCN(C(=O)C(C)Oc2cc3oc(=O)cc(-c4ccccc4)c3cc2Cl)C1 (stereo not drawn) [Compound 10, methyl 1-[2-(6-chloro-2-oxo-4-phenyl-chromen-7-yl)oxypropanoyl]piperidine-3-carboxylate]	6.00 to 7.00
CC(Oc1cc2oc(=O)cc(-c3ccccc3)c2cc1Cl)C(=O)NCC(O)c1ccccc1 (stereo not drawn) [Compound 27, 2-(6-chloro-2-oxo-4-phenyl-chromen-7-yl)oxy-N-(2-hydroxy-2-phenyl-ethyl)propanamide]	5.00 to 6.00
O=C(COc1cc2oc(=O)cc(-c3ccccc3)c2cc1Cl)NCc1ccccn1 [Compound 99, 2-(6-chloro-2-oxo-4-phenyl-chromen-7-yl)oxy-N-(2-pyridylmethyl)acetamide]	5.00 to 6.00
CC(Oc1cc2oc(=O)cc(-c3ccccc3)c2cc1Cl)C(=O)Nc1ccc(CCCO)cc1 (stereo not drawn) [Compound 28, 2-(6-chloro-2-oxo-4-phenyl-chromen-7-yl)oxy-N-[4-(3-hydroxypropyl)phenyl]propanamide]	6.00 to 7.00
CC(Oc1ccc2c(-c3ccccc3)cc(=O)oc2c1)C(=O)N1CCC(C(=O)O)CC1 (stereo not drawn) [Compound 69, 1-[2-(2-oxo-4-phenyl-chromen-7-yl)oxypropanoyl]piperidine-4-carboxylic acid]	5.00 to 6.00
O=C(COc1cc2oc(=O)cc(-c3ccccc3)c2cc1Cl)Nc1ccc(CCO)cc1 [Compound 57, 2-(6-chloro-2-oxo-4-phenyl-chromen-7-yl)oxy-N-[4-(2-hydroxyethyl)phenyl]acetamide]	6.00 to 7.00
CC(Oc1cc2oc(=O)cc(-c3ccccc3)c2cc1Cl)C(=O)N1CCCC(C(=O)O)C1 (stereo not drawn) [Compound 13, 1-[2-(6-chloro-2-oxo-4-phenyl-chromen-7-yl)oxypropanoyl]piperidine-3-carboxylic acid]	6.00 to 7.00
CC(Oc1ccc2c(-c3ccccc3)cc(=O)oc2c1)C(=O)N1CCC[C@H](C(=O)N(C)C)C1 (mixture of isomers) [Compound 68, rac-(3S)-N,N-dimethyl-1-[2-(2-oxo-4-phenyl-chromen-7-yl)oxpropanoyl]piperidine-3-carboxamide]	5.00 to 6.00
CC(Oc1ccc2c(-c3ccccc3)cc(=O)oc2c1)C(=O)Oc1ccccc1 (stereo not drawn) [Compound 24, phenyl 2-(2-oxo-4-phenyl-chromen-7-yl)oxypropanoate]	5.00 to 6.00
C[C@@H](Oc1ccc2c(-c3ccccc3)cc(=O)oc2c1)C(=O)N1CCC[C@H](C(=O)O)C1 [Compound 21, (3S)-1-[(2R)-2-(2-oxo-4-phenyl-chromen-7-yl)oxypropanoyl]piperidine-3-carboxylic acid]	6.00 to 7.00
O=C(O)C1CCCN(C(=O)COc2ccc3c(-c4ccccc4)cc(=O)oc3c2)C1 (stereo not drawn) [Compound 54, 1-[2-(2-oxo-4-phenyl-chromen-7-yl)oxyacetyl]piperidine-3-carboxylic acid]	6.00 to 7.00
CCOC(=O)C(C)Oc1cc2oc(=O)cc(-c3ccccc3)c2cc1Cl (stereo not drawn) [Compound 50, ethyl 2-(6-chloro-2-oxo-4-phenyl-chromen-7-yl)oxypropanoate]	6.00 to 7.00
COC(=O)COc1ccc2c(-c3ccccc3)cc(=O)oc2c1C [Compound 91, methyl 2-(8-methyl-2-oxo-4-phenyl-chromen-7-yl)oxyacetate]	5.00 to 6.00
CC(Oc1ccc2c(-c3ccccc3)cc(=O)oc2c1)C(=O)Nc1ccc(CCCO)cc1 (stereo not drawn) [Compound 5, N-[4-(3-hydroxypropyl)phenyl]-2-(2-oxo-4-phenyl-chromen-7-yl)oxy-propanamide]	6.00 to 7.00
